In ChEMBL document CHEMBL6096684, “Targeting IspD for Anti-infective and Herbicide Development: Exploring Its Role, Mechanism, and Structural Insights” (J Med Chem, 2025):
pIC50: −log10 of the molar value. One block for each compound: values may come before it.

Assays:
[1] = Inhibition of Arabidopsis thaliana IspD
[2] = Inhibition of wild type Plasmodium falciparum IspD extracted from Escherichia coli BL21 (DE3)
[3] = Inhibition of Plasmodium falciparum IspD
[4] = Inhibition of Plasmodium vivax IspD
[5] = Inhibition of Plasmodium falciparum 3D7 IspD

Compound: O=C(O)[C@@H]1Cc2c([nH]c3ccccc23)[C@@H](c2ccc(Cl)cc2Cl)N1
- pIC50 [2]: 6.60

Compound: O=C(O)[C@H]1Cc2c([nH]c3ccccc23)[C@H](c2ccc(Cl)cc2Cl)N1
- pIC50 [2]: 7.33

Compound: O=C(O)[C@H]1Cc2c([nH]c3ccccc23)[C@@H](c2ccc(Cl)cc2Cl)N1
- pIC50 [2]: 6.77

Compound: Cc1ccc(C)n1-c1ccc([N+](=O)[O-])cc1C(=O)O
- pIC50 [3]: 3.57

Compound: O=c1c2ccccc2sn1-c1cccc(-c2ccc(Cl)cc2)c1
- pIC50 [3]: 7.14
- pIC50 [4]: 7.24
- pIC50 [5]: 5.96

Compound: Cc1ccc(-n2sc3ccccc3c2=O)cc1S(=O)(=O)N1CCOCC1
- pIC50 [3]: 6.35
- pIC50 [4]: 7.35
- pIC50 [5]: 5.37

Compound: Oc1c(Br)cc(Br)cc1-c1cc(C(F)(F)F)no1
- pIC50 [1]: 5.03

Compound: Oc1ccc(Br)cc1-c1cc(C(F)(F)F)no1
- pIC50 [1]: 3.38

Compound: Oc1c(Br)cc(Br)cc1-c1ccno1
- pIC50 [1]: 3.92

Compound: Oc1ccc(Br)cc1-c1ccno1
- pIC50 [1]: < 3.30

Compound: Oc1c(Br)cc(Br)cc1-c1[nH]c(Br)c(Br)c1Br [PENTABROMOPSEUDILIN]
- pIC50 [4]: 4.32

Compound: Oc1c(Cl)cc(Cl)cc1-c1[nH]c(Br)c(Br)c1Br [TRIBROMODICHLOROPSEUDILIN]
- pIC50 [4]: 4.25

The next lines start with the values.

- pIC50 [1]: 4.46
Compound: N#Cc1cnn2c(O)c(Cc3ccccc3)c(Cl)nc12

- pIC50 [1]: 5.74
Compound: COc1ccc2nc(NC(=O)c3cc(-c4ccccc4O)n[nH]3)sc2c1

- pIC50 [1]: 5.20
Compound: COc1ccc2nc(NC(=O)COc3ccc(-c4ccccc4)cc3)sc2c1

- pIC50 [1]: 3.56
Compound: O=C(O)c1cnn2c(O)c(Cc3ccccc3)c(Cl)nc12

- pIC50 [1]: 5.80
Compound: CC(C)CCn1c(N)c(-c2nc3ccccc3[nH]2)c2nc3ccccc3nc21

- pIC50 [1]: 4.30
Compound: CCN(CC)CCCC(C)n1c(N)c(-c2nc3ccccc3[nH]2)c2nc(C#N)c(C#N)nc21 (configuration not stated)
